Measurements: ChEMBL document CHEMBL1138416, “Synthesis and SAR of potent and selective androgen receptor antagonists: 5,6-Dichloro-benzimidazole derivatives” (Bioorg Med Chem Lett, 2007)
Activity calls are given as the source filed them. The rule behind the calls is not given here.

What was measured:
Rattus norvegicus [1] = species: Rattus norvegicus; assay: Inhibition of prostate weight in testosterone treated castrated immature Sprague-Dawley rat at 2 mg/day; type: functional, Prostate gland; details: for inhibition: Prostate gland
[2] = Bioavailability in orally dosed Sprague-Dawley rat; type: ADME, organism-based; details: in vivo, po
[3] = Half life in orally dosed Sprague-Dawley rat; type: ADME, organism-based; details: in vivo, po
[4] = target: T1, Androgen receptor (Homo sapiens) (UniProt P10275); assay: Antagonist activity at androgen receptor expressed in COS cell at 3000 nM by whole cell assay; type: functional, cell-based
T1 sequence (whole entry): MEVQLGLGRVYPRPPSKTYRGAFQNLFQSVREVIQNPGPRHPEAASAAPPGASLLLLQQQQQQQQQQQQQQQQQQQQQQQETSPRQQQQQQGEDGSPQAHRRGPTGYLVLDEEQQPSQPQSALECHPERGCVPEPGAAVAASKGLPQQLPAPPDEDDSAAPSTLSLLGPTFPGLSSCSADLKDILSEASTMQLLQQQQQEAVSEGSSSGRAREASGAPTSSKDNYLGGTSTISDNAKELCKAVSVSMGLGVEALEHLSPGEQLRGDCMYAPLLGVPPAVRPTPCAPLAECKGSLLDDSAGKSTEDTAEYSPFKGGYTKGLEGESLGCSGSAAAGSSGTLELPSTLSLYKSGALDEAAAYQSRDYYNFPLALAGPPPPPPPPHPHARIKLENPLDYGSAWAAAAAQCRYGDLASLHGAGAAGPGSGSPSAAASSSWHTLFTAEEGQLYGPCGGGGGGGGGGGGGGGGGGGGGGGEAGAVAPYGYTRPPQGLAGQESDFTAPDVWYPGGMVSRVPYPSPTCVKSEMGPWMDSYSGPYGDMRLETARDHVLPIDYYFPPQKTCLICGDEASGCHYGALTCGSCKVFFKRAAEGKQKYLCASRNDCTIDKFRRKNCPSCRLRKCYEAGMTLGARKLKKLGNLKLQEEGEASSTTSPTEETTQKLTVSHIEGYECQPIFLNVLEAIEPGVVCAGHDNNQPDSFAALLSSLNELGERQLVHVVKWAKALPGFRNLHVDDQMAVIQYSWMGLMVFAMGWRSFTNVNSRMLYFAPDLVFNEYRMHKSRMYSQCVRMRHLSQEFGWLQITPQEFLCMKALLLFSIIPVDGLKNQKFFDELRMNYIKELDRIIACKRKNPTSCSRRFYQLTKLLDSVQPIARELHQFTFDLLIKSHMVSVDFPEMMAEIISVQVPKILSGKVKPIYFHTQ

Rattus norvegicus [5] = species: Rattus norvegicus; assay: Inhibition of prostate weight in testosterone treated castrated immature Sprague-Dawley rat; type: functional, Prostate gland
Rattus norvegicus [6] = species: Rattus norvegicus; assay: Inhibition of prostate weight in testosterone treated castrated mature Sprague-Dawley rat; type: functional; details: Prostate gland, read-out: ID50 (the source's name)
Rattus norvegicus [7] = species: Rattus norvegicus; assay: Inhibition of prostate weight in testosterone treated castrated immature Sprague-Dawley rat at 0.3 mg/day
[8] = target: T1, Androgen receptor (Homo sapiens); assay: Antagonist activity at androgen receptor expressed in COS cell by whole cell assay; type: functional, cell-based

Compound | Inhibition (Rattus norvegicus [1]) [%] | other results
Cn1c(CC(F)(F)F)nc2cc(Cl)c(Cl)cc21 | 60 | 
COCn1c(C(C)(C)O)nc2cc(Cl)c(Cl)cc21 | 90 | 
CC(O)(CC#N)c1nc2cc(Cl)c(Cl)cc2[nH]1 (stereo not drawn) | 64 | 
CC(O)(c1nc2cc(Cl)c(Cl)cc2[nH]1)c1cccs1 (stereo not drawn) | 16 | 
CCOCC(C)(O)c1nc2cc(Cl)c(Cl)cc2n1C (stereo not drawn) | 10 | 
CCC(C)c1nc2cc(Cl)c(Cl)cc2[nH]1 (stereo not drawn) | 88 | 
CCn1c(C(C)(O)CS(=O)(=O)CC)nc2cc(Cl)c(Cl)cc21 (stereo not drawn) | 74 | bioavailability [2]: 99%; half-life [3]: 900 min; inhibition [4]: 20%
CC(O)(c1nc2cc(Cl)c(Cl)cc2[nH]1)c1ccco1 (stereo not drawn) | 20 | 
OC(c1nc2cc(Cl)c(Cl)cc2[nH]1)C(F)(F)F (stereo in doubt; 1) | 96 | ID50 (Rattus norvegicus [5]): 0.15 mg/day; ED50 (Rattus norvegicus [6]): 30 mg/kg; bioavailability [2]: 132%; half-life [3]: 882 min
CC(C)(O)c1nc2cc(C#N)c(C(F)(F)F)cc2[nH]1 | 63 | 
CSCn1c(C(C)(C)O)nc2cc(Cl)c(Cl)cc21 | 96 | 
CCCC(C)c1nc2cc(Cl)c(Cl)cc2n1C (stereo not drawn) | 23 | 
CCn1c(C(C)C)nc2cc(Cl)c(Cl)cc21 | 82 | 
Cn1c(C(C)(O)CS(=O)(=O)CC(F)(F)F)nc2cc(Cl)c(Cl)cc21 (stereo not drawn) | 38 | 
CC(O)(c1nc2cc(Cl)c(Cl)cc2[nH]1)C(F)(F)F (stereo not drawn) | 74 | 
CC(O)c1nc2cc(Cl)c(Cl)cc2[nH]1 (stereo not drawn) |  | inhibition (Rattus norvegicus [1]): inactive
CCCC(C)c1nc2cc(Cl)c(Cl)cc2[nH]1 (stereo not drawn) | 32 | 
CCS(=O)(=O)CC(C)(O)c1nc2cc(Cl)c(Cl)cc2n1C (stereo not drawn) | 79 | 
CC(C)CS(=O)(=O)CC(C)(O)c1nc2cc(Cl)c(Cl)cc2n1C (stereo not drawn) | 7 | 
CCSCC(C)(O)c1nc2cc(Cl)c(Cl)cc2n1C (stereo not drawn) | 86 | 
OC(c1nc2cc(Cl)c(Cl)cc2[nH]1)C(F)(F)F (stereo in doubt; (+)-1) |  | ID50 (Rattus norvegicus [5]): 0.032 mg/day; Inhibition (Rattus norvegicus [7]): 81%
CCSCC(C)(O)c1nc2cc(Cl)c(Cl)cc2n1CC (stereo not drawn) | 79 | bioavailability [2]: 15%; half-life [3]: 60 min
Cn1c(C(O)(O)C(F)(F)F)nc2cc(Cl)c(Cl)cc21 | 94 | ID50 (Rattus norvegicus [5]): 0.17 mg/day; ED50 (Rattus norvegicus [6]): 23 mg/kg
CCCCn1c(C(C)(C)O)nc2cc(Cl)c(Cl)cc21 |  | inhibition (Rattus norvegicus [1]): inactive
Cn1c(C(C)(C)O)nc2cc(Cl)c(Cl)cc21 | 91 | bioavailability [2]: 100%; half-life [3]: 180 min
Cc1ccc(S(=O)(=O)CC(C)(O)c2nc3cc(Cl)c(Cl)cc3[nH]2)cc1 (stereo not drawn) | 11 | 
Cn1c(C(C)(O)CS(=O)(=O)Cc2ccccc2)nc2cc(Cl)c(Cl)cc21 (stereo not drawn) | 16 | 

Compound | Inhibition (Rattus norvegicus [1]) [%] | other results
CCCS(=O)(=O)CC(C)(O)c1nc2cc(Cl)c(Cl)cc2n1C (stereo not drawn) | 26 | 
CC(O)(CS(C)(=O)=O)c1nc2cc(Cl)c(Cl)cc2[nH]1 (stereo not drawn) |  | inhibition (Rattus norvegicus [1]): inactive
CCC(CC)c1nc2cc(Cl)c(Cl)cc2n1C | 77 | 
CCn1c(C(C)(C)O)nc2cc(Cl)c(Cl)cc21 | 82 | 
CC(C)c1nc2cc(Cl)c(Cl)cc2[nH]1 | 11 | 
CCc1nc2cc(Cl)c(Cl)cc2[nH]1 |  | inhibition (Rattus norvegicus [1]): inactive
CC(C)c1nc2cc(Cl)c(Cl)cc2n1C | 93 | 
CCCSCC(C)(O)c1nc2cc(Cl)c(Cl)cc2n1C (stereo not drawn) | 40 | 
CCCn1c(C(C)(C)O)nc2cc(Cl)c(Cl)cc21 | 53 | 
CC(C)(O)c1nc2cc(F)c(Cl)cc2[nH]1 | 57 | 
OC(c1nc2cc(Cl)c(Cl)cc2[nH]1)C(F)(F)F (stereo in doubt; (-)-1) |  | ID50 (Rattus norvegicus [5]): 0.12 mg/day; Inhibition (Rattus norvegicus [7]): 80%
CC(C)CSCC(C)(O)c1nc2cc(Cl)c(Cl)cc2n1C (stereo not drawn) | 9 | 
CCC(C)c1nc2cc(Cl)c(Cl)cc2n1C (stereo not drawn) |  | inhibition (Rattus norvegicus [1]): inactive
Cn1c(C(C)(O)CSCC(F)(F)F)nc2cc(Cl)c(Cl)cc21 (stereo not drawn) | 6 | 
CCC(CC)c1nc2cc(Cl)c(Cl)cc2[nH]1 | 80 | 
CC(C)(O)c1nc2cc(Cl)c(Cl)cc2[nH]1 | 77 | bioavailability [2]: 100%; half-life [3]: 240 min; inhibition [4]: 90%; ID50 [8]: 80 nM
CC(O)(CS(=O)(=O)c1ccc(F)cc1)c1nc2cc(Cl)c(Cl)cc2[nH]1 (stereo not drawn) | 29 | 
FC(F)(F)Cc1nc2cc(Cl)c(Cl)cc2[nH]1 | 90 | ID50 (Rattus norvegicus [5]): 0.097 mg/day; ED50 (Rattus norvegicus [6]): 18 mg/kg; half-life [3]: 318 min; inhibition [4]: 30%
CCC(CC)c1nc2cc(Cl)c(Cl)cc2n1CC | 3 | 
CC(C)(O)c1nc2cc(Cl)c(Cl)cc2n1CC#N | 5 | 
COC(c1nc2cc(Cl)c(Cl)cc2n1C)C(F)(F)F (stereo not drawn) | 60 | 
CC(C)(O)c1nc2cc(Cl)c(C(F)(F)F)cc2[nH]1 | 42 | 
CC(O)(CS(=O)(=O)c1ccc(F)cc1)C(=O)Nc1ccc(C#N)c(C(F)(F)F)c1 (stereo not drawn) [BICALUTAMIDE] | 70 | ID50 (Rattus norvegicus [5]): 0.23 mg/day; ED50 (Rattus norvegicus [6]): 30 mg/kg
CC(O)(CO)c1nc2cc(Cl)c(Cl)cc2[nH]1 (stereo not drawn) | 67 | 
Cn1c(C(C)(O)CSCc2ccccc2)nc2cc(Cl)c(Cl)cc21 (stereo not drawn) | 63 | 
Cn1c(C(C)(O)CSc2ccc(F)cc2)nc2cc(Cl)c(Cl)cc21 (stereo not drawn) | 6 | 
